From US11304956B2, “Use of 7-bromo-5-(O-chlorophenyl)-3-propoxy-1,2-dihydro-3H-1,4-benzodiazepin-2-one for inhibition of neuropathic pain and seizures of different etiology” (priority 2016, dated 2022) come the findings set out here.

The experiment concerns carrageenan rat paw edema. Nature of the experiment: Carrageenan rat paw edema. In kind it is in vivo, male white rats. From the text:
Given the fact that Compound 1 affects not only the painful, but also the inflammatory phase, we undertook an in-depth study of its anti-inflammatory effect. The most common screening method of anti-inflammatory activity is the model of inflammatory edema of the rat hind paw, induced by the subplantar administration of various phlogogenic agents. Under the conditions of carrageenan administration, a sufficiently pronounced edema reaction is observed, which slowly develops and persists for a long time. The maximum size of edema is observed in 2-4 hours.
The anti-inflammatory properties of the test compounds were studied in the model of carrageenan rat paw edema. Male white rats weighing 150-180 g were used in the experiments. Before the administration of the experimental substances, the volumes of the rats' paws subsequently injected by phlogogen were measured. The test compounds and the reference drug—diclofenac-sodium, were administered intraperitoneally 40 minutes prior the inflammation induction. The control group of the rats received an equivalent amount of physiological solution in the emulsion with Tween-80. Acute aseptic inflammation was induced by a 1% aqueous solution of 0.1 ml)—carrageenan injection under plantar aponeurosis of the hind paw of animals of the experimental and control groups (see Trinus F. P. Nonsteroidal anti-inflammatory drugs/F. P. Trinus, N. A. Mohort, B. M. Klebanov//K., 1975, pp. 204-231., Winter C. A. Carrageenin—induced edema in hind paw of the rat as an assay for antiinflammatory drugs/C. A. Winter, E. A. Risley, G. V. Nuss//Proc. Soc. Exp. Biol. Med.—1962.—Vol. 111.—P. 544-547). The inflammatory reaction significance was evaluated after two and four hours after the phlogogen injection. Registration of edema size was carried out by mechanical measurement of foot volume in dynamics according to Zakharevsky A. S. (see Zaharevskiy A. S. The influence of some indole derivatives on the nervous system. Diss. cand. med. science/Zaharevskiy Aleksandr Stepanovich-Minsk.—1969.—78-80 p.). The edema extent was estimated according to the difference in volume between the swollen paw and the paw before inflammation induction. The anti-inflammatory efficacy of the test compounds was determined as the ability of the test compounds to suppress the inflammatory response in the experimental animals compared to the control animals and expressed as a percentage. The calculation was carried out according to the following formula:
The percentage of inflammation suppression=(ΔVκ−ΔV ? /ΔVκ)·100%,
where: ΔVκ—the average increase in the volume of the swollen paw in the control;
ΔV ? —the average increase in the volume of the swollen paw in animals injected by experimental substances.
A general note: In the carrageenan paw model, swelling and tenderness develop within hours.

Where [1] appears, read: 3.0 mg/kg intraperitoneally 40 min before carrageenan.
The mark [2] stands for this setting: 10.0 mg/kg intraperitoneally 40 min before carrageenan.

Consider `CCCOC1N=C(c2ccccc2Cl)c2cc(Br)ccc2NC1=O` (stereo not shown) [Compound 1, 7-bromo-5-(o-chlorophenyl)-3-propoxy-1,2-dihydro-3H-1,4-benzodiazepin-2-one], for which, under setting [1], the “Inhibition of edema in 2 hours (%)” value was found to be 36.7 ± 4.1 % and the “Inhibition of edema in 4 hours (%)” value turned out to be 25.00 ± 2.7 %. Also, under setting [2], the “Inhibition of edema in 2 hours (%)” value stood at 47.0 ± 4.1 % and the “Inhibition of edema in 4 hours (%)” value was 26.70 ± 5.4 %.
